Active and inactive are the calls of the source. The calls are words filed in the database; no cut-off is given here.
What was measured:
[1] = molecular target: Vasoactive intestinal polypeptide receptor 1 (Homo sapiens) (UniProt P32241); experiment: Binding affinity to VIP1 receptor (unknown origin) 10 umol/L by radioligand binding assay; conditions: dose 10.0 µmol/L
[2] = molecular target: Prostaglandin E2 receptor EP2 subtype (Homo sapiens) (UniProt P43116); experiment: Binding affinity to Prostanoid EP2 receptor (unknown origin) 10 umol/L by radioligand binding assay; conditions: dose 10.0 µmol/L
[3] = molecular target: Voltage-gated L-type calcium channel (Homo sapiens, UniProt Q13936+Q13698+Q01668+O60840); experiment: Binding affinity to Voltage-dependent L-type calcium channel dihydropyridine site (unknown origin) 10 umol/L by radioligand binding assay; type: protein assay; conditions: 10 µM, dose 10 µmol/L
[4] = molecular target: Gastrin/cholecystokinin type B receptor (Homo sapiens) (UniProt P32239); experiment: Binding affinity to CCKB (unknown origin) 10 umol/L by radioligand binding assay; conditions: dose 10.0 µmol/L
Homo sapiens [5] = organism: Homo sapiens; experiment: Binding affinity to Imidazole receptor (unknown origin) 10 umol/L by radioligand binding assay; conditions: dose 10.0 µmol/L
[6] = molecular target: Delta-type opioid receptor (Homo sapiens) (UniProt P41143); experiment: Binding affinity to delta opioid receptor (unknown origin) 10 umol/L by radioligand binding assay; conditions: dose 10.0 µmol/L
[7] = molecular target: Histamine H1 receptor (Homo sapiens) (UniProt P35367); experiment: Binding affinity to H1 receptor (unknown origin) 10 umol/L by radioligand binding assay; conditions: dose 10.0 µmol/L
Chain of Histamine H1 receptor (Homo sapiens) (P35367 whole entry): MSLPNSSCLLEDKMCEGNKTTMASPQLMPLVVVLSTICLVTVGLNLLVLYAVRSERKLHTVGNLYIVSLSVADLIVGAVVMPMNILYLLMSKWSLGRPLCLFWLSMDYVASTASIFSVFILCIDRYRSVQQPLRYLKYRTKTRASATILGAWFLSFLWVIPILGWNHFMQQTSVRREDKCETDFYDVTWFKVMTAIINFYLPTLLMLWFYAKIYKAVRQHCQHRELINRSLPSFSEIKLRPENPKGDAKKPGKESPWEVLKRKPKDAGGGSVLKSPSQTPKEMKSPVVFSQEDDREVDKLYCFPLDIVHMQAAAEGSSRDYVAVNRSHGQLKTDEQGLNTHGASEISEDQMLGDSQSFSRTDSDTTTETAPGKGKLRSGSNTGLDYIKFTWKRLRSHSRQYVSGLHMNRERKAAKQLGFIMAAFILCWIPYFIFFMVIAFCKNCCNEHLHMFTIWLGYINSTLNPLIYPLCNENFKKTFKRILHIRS

[8] = molecular target: Muscarinic acetylcholine receptor M3 (Homo sapiens) (UniProt P20309); experiment: Binding affinity to muscarinic M3 (unknown origin) 10 umol/L by radioligand binding assay; conditions: dose 10.0 µmol/L
Homo sapiens [9] = organism: Homo sapiens; experiment: Binding affinity to IP3 receptor (unknown origin) 10 umol/L by radioligand binding assay; conditions: dose 10.0 µmol/L
[10] = molecular target: Alpha-2B adrenergic receptor (Homo sapiens) (UniProt P18089); experiment: Binding affinity to alpha2B adrenoreceptor (unknown origin) 10 umol/L by radioligand binding assay; conditions: dose 10.0 µmol/L
[11] = molecular target: Sigma intracellular receptor 2 (Homo sapiens) (UniProt Q5BJF2); experiment: Binding affinity to sigma2 receptor (unknown origin) 10 umol/L by radioligand binding assay; conditions: dose 10.0 µmol/L
Chain of Sigma intracellular receptor 2 (Homo sapiens) (Q5BJF2 whole entry): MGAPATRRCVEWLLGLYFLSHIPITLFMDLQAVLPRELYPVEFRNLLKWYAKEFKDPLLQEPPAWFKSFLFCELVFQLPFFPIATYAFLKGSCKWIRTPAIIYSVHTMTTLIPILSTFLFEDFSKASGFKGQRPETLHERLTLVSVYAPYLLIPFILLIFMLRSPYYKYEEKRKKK

[12] = molecular target: Beta-1 adrenergic receptor (Homo sapiens) (UniProt P08588); experiment: Binding affinity to beta1 adrenoreceptor (unknown origin) 10 umol/L by radioligand binding assay; conditions: dose 10.0 µmol/L
Chain of Beta-1 adrenergic receptor (Homo sapiens) (P08588 whole entry, looked up): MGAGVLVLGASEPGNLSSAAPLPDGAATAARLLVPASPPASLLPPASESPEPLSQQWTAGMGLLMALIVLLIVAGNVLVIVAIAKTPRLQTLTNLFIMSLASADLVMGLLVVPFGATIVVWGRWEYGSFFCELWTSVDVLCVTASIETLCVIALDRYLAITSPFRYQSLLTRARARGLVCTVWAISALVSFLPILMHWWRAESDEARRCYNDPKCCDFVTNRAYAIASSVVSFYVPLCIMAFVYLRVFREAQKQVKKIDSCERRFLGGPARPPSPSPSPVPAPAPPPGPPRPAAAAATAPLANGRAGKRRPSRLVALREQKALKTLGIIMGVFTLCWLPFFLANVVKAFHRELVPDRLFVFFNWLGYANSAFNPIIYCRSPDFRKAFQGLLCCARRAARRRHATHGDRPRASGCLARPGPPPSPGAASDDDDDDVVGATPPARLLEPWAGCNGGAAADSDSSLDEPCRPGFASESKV

[13] = molecular target: D(1B) dopamine receptor (Homo sapiens) (UniProt P21918); experiment: Binding affinity to D5 receptor (unknown origin) 10 umol/L by radioligand binding assay; conditions: dose 10.0 µmol/L
Homo sapiens [14] = organism: Homo sapiens; experiment: Binding affinity to AMPA receptor (unknown origin) 10 umol/L by radioligand binding assay; conditions: dose 10.0 µmol/L
[15] = molecular target: Muscarinic acetylcholine receptor M1 (Homo sapiens) (UniProt P11229); experiment: Binding affinity to muscarinic M1 (unknown origin) 10 umol/L by radioligand binding assay; conditions: dose 10.0 µmol/L
[16] = molecular target: Histamine H3 receptor (Homo sapiens) (UniProt Q9Y5N1); experiment: Binding affinity to H3 receptor (unknown origin) 10 umol/L by radioligand binding assay; conditions: dose 10.0 µmol/L
[17] = molecular target: Endothelin receptor type B (Homo sapiens) (UniProt P24530); experiment: Binding affinity to ETB receptor (unknown origin) 10 umol/L by radioligand binding assay; conditions: dose 10.0 µmol/L
Chain of Endothelin receptor type B (Homo sapiens) (P24530 whole entry): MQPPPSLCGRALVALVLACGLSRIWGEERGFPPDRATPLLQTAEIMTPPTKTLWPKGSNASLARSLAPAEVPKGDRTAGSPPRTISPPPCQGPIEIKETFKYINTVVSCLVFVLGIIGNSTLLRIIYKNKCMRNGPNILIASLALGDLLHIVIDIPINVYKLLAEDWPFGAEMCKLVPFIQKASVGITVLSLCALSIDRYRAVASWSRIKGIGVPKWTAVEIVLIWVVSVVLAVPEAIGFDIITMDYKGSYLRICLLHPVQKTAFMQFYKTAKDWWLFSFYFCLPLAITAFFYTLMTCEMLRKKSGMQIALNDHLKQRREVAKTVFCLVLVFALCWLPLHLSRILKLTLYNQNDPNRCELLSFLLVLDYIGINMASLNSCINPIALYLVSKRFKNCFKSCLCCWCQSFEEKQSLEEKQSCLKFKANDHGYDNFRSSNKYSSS

[18] = molecular target: Histamine H2 receptor (Homo sapiens) (UniProt P25021); experiment: Binding affinity to H2 receptor (unknown origin) 10 umol/L by radioligand binding assay; conditions: dose 10.0 µmol/L
Chain of Histamine H2 receptor (Homo sapiens) (P25021 whole entry): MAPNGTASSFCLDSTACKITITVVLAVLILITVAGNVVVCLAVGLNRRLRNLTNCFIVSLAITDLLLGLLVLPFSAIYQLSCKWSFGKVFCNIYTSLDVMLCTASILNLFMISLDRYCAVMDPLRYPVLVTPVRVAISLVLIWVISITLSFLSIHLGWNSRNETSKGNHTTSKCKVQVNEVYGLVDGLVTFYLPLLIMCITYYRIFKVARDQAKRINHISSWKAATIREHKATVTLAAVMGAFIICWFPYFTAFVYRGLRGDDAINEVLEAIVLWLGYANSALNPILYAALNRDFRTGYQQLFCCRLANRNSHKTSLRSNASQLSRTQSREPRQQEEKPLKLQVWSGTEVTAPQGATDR

[19] = molecular target: Mu-type opioid receptor (Homo sapiens) (UniProt P35372); experiment: Binding affinity to mu receptor (unknown origin) 10 umol/L by radioligand binding assay; conditions: dose 10.0 µmol/L
Chain of Mu-type opioid receptor (Homo sapiens) (P35372 whole entry): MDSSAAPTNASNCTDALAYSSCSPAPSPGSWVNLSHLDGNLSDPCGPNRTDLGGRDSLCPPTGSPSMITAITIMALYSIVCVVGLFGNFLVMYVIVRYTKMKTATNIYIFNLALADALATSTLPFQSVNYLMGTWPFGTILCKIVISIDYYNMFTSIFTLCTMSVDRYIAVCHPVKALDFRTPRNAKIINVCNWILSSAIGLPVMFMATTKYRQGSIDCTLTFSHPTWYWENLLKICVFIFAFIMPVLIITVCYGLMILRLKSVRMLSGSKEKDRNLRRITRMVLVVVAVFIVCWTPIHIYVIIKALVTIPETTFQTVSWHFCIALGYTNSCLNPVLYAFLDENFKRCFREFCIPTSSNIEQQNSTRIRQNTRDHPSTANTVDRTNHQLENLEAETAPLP

[20] = molecular target: Neuromedin-K receptor (Homo sapiens) (UniProt P29371); experiment: Binding affinity to NK3 receptor (unknown origin) 10 umol/L by radioligand binding assay; conditions: dose 10.0 µmol/L
Chain of Neuromedin-K receptor (Homo sapiens) (P29371 whole entry): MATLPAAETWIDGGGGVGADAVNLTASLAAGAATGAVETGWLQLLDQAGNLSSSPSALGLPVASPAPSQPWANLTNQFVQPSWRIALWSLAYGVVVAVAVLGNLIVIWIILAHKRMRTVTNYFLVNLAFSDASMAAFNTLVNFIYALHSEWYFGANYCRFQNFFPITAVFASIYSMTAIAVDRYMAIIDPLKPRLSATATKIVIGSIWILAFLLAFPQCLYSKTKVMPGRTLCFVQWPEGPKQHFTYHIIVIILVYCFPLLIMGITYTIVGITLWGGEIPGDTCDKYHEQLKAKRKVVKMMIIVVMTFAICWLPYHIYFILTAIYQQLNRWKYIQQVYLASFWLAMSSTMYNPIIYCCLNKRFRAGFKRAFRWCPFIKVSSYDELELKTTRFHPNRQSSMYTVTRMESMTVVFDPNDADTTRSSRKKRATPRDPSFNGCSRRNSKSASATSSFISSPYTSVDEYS

Homo sapiens [21] = organism: Homo sapiens; experiment: Binding affinity to GABAA receptor agonist site (unknown origin) 10 umol/L by radioligand binding assay; conditions: dose 10.0 µmol/L
[22] = molecular target: Neuropeptide Y receptor type 1 (Homo sapiens) (UniProt P25929); experiment: Binding affinity to Y1 receptor (unknown origin) 10 umol/L by radioligand binding assay; conditions: dose 10.0 µmol/L
[23] = molecular target: Sodium-dependent serotonin transporter (Homo sapiens) (UniProt P31645); experiment: Inhibition of serotonin transporter (unknown origin) 10 umol/L by radioligand binding assay relative to control; conditions: dose 10.0 µmol/L
[24] = molecular target: Neuropeptide Y receptor type 2 (Homo sapiens) (UniProt P49146); experiment: Binding affinity to Y2 receptor (unknown origin) 10 umol/L by radioligand binding assay; conditions: dose 10.0 µmol/L
Chain of Neuropeptide Y receptor type 2 (Homo sapiens) (P49146 whole entry): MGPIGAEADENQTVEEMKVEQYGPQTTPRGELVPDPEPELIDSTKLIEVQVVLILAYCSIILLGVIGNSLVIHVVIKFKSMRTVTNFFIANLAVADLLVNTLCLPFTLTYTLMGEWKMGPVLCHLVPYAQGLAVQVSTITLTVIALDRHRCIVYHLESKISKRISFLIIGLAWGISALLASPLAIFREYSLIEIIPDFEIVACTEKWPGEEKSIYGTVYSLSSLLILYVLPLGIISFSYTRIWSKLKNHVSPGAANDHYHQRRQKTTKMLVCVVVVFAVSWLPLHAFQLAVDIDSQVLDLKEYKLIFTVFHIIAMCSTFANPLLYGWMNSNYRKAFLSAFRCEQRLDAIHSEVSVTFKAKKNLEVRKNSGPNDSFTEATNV

[25] = molecular target: Type-1 angiotensin II receptor (Homo sapiens) (UniProt P30556); experiment: Binding affinity to AT1 receptor (unknown origin) 10 umol/L by radioligand binding assay; conditions: dose 10.0 µmol/L
Homo sapiens [26] = organism: Homo sapiens; experiment: Binding affinity to NMDA receptor glycine site (unknown origin) 10 umol/L by radioligand binding assay; conditions: dose 10.0 µmol/L
Homo sapiens [27] = organism: Homo sapiens; experiment: Binding affinity to D4.2 receptor (unknown origin) 10 umol/L by radioligand binding assay; conditions: dose 10.0 µmol/L
[28] = molecular target: 5-hydroxytryptamine receptor 3A (Homo sapiens) (UniProt P46098); experiment: Binding affinity to 5-HT3 receptor (unknown origin) 10 umol/L by radioligand binding assay; conditions: dose 10.0 µmol/L
Homo sapiens [29] = organism: Homo sapiens; experiment: Binding affinity to NMDA receptor polyamine site (unknown origin) 10 umol/L by radioligand binding assay; conditions: dose 10.0 µmol/L
Homo sapiens [30] = organism: Homo sapiens; experiment: Binding affinity to nACh receptor (unknown origin) 10 umol/L by radioligand binding assay; conditions: dose 10.0 µmol/L
[31] = molecular target: B1 bradykinin receptor (Homo sapiens) (UniProt P46663); experiment: Binding affinity to B1 receptor (unknown origin) 10 umol/L by radioligand binding assay; conditions: dose 10.0 µmol/L
[32] = molecular target: Alpha-1A adrenergic receptor (Homo sapiens) (UniProt P35348); experiment: Binding affinity to alpha1A adrenoreceptor (unknown origin) 10 umol/L by radioligand binding assay; conditions: dose 10.0 µmol/L
Chain of Alpha-1A adrenergic receptor (Homo sapiens) (P35348 whole entry): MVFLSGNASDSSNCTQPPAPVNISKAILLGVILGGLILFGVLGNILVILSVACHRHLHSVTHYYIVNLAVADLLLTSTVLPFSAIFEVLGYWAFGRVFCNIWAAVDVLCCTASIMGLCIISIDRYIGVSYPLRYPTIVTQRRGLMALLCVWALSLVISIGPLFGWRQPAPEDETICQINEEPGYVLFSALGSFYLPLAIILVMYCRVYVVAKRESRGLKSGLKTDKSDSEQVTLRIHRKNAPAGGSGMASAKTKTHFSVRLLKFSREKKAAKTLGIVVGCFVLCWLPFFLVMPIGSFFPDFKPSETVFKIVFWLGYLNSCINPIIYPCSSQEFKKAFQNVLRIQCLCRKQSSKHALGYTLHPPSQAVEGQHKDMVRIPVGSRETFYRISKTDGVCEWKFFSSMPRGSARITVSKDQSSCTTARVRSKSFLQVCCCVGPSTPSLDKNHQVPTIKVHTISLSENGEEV

Homo sapiens [33] = organism: Homo sapiens; experiment: Binding affinity to Vasopressin V1 receptor (unknown origin) 10 umol/L by radioligand binding assay; conditions: dose 10.0 µmol/L
Homo sapiens [34] = organism: Homo sapiens; experiment: Binding affinity to Small conductance calcium-activated potassium channel (unknown origin) 10 umol/L by radioligand binding assay; conditions: dose 10.0 µmol/L
[35] = molecular target: Sodium-dependent dopamine transporter (Homo sapiens) (UniProt Q01959); experiment: Binding affinity to dopamine transporter (unknown origin) 10 umol/L by radioligand binding assay; conditions: dose 10.0 µmol/L
[36] = molecular target: Alpha-1B adrenergic receptor (Homo sapiens) (UniProt P35368); experiment: Binding affinity to alpha1B adrenoreceptor (unknown origin) 10 umol/L by radioligand binding assay; conditions: dose 10.0 µmol/L
Homo sapiens [37] = organism: Homo sapiens; experiment: Binding affinity to Potassium voltage-gated channel (unknown origin) 10 umol/L by radioligand binding assay; conditions: dose 10.0 µmol/L
Homo sapiens [38] = organism: Homo sapiens; experiment: Binding affinity to sodium channel site 2 (unknown origin) 10 umol/L by radioligand binding assay; conditions: dose 10.0 µmol/L
[39] = molecular target: Adenosine receptor A3 (Homo sapiens) (UniProt P0DMS8); experiment: Binding affinity to A3 receptor (unknown origin) 10 umol/L by radioligand binding assay; conditions: dose 10.0 µmol/L
[40] = molecular target: Kappa-type opioid receptor (Homo sapiens) (UniProt P41145); experiment: Binding affinity to kappa receptor (unknown origin) 10 umol/L by radioligand binding assay; conditions: dose 10.0 µmol/L
Chain of Kappa-type opioid receptor (Homo sapiens) (P41145 whole entry): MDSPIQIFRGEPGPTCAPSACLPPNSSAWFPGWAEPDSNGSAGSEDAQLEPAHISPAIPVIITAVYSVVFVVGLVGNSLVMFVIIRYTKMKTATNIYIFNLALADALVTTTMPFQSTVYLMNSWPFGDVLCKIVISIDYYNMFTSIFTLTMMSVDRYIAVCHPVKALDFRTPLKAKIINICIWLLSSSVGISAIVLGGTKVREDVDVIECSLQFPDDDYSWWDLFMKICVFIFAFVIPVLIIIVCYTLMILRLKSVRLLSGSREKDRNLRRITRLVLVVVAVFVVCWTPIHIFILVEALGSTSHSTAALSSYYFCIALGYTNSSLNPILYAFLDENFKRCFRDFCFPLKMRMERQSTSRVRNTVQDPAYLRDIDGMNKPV

[41] = molecular target: B2 bradykinin receptor (Homo sapiens) (UniProt P30411); experiment: Binding affinity to B2 receptor (unknown origin) 10 umol/L by radioligand binding assay; conditions: dose 10.0 µmol/L
Chain of B2 bradykinin receptor (Homo sapiens) (P30411 whole entry): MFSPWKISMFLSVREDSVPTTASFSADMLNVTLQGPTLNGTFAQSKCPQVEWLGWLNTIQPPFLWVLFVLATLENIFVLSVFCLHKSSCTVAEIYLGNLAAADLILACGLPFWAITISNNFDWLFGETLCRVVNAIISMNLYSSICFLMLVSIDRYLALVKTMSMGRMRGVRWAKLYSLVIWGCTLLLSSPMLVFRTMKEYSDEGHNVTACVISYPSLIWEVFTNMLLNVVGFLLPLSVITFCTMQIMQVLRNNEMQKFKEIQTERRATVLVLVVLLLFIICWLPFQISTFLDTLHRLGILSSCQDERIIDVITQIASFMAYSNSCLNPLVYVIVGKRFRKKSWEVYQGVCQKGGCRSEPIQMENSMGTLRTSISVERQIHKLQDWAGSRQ

[42] = molecular target: Cannabinoid receptor 1 (Homo sapiens) (UniProt P21554); experiment: Binding affinity to CB1 (unknown origin) 10 umol/L by radioligand binding assay; conditions: dose 10.0 µmol/L
Homo sapiens [43] = organism: Homo sapiens; experiment: Binding affinity to glycine receptor strychnine-sensitive binding site (unknown origin) 10 umol/L by radioligand binding assay; conditions: dose 10.0 µmol/L
Homo sapiens [44] = organism: Homo sapiens; experiment: Binding affinity to NMDA receptor agonist site (unknown origin) 10 umol/L by radioligand binding assay; conditions: dose 10.0 µmol/L

Chain of Vasoactive intestinal polypeptide receptor 1 (Homo sapiens) (P32241 whole entry): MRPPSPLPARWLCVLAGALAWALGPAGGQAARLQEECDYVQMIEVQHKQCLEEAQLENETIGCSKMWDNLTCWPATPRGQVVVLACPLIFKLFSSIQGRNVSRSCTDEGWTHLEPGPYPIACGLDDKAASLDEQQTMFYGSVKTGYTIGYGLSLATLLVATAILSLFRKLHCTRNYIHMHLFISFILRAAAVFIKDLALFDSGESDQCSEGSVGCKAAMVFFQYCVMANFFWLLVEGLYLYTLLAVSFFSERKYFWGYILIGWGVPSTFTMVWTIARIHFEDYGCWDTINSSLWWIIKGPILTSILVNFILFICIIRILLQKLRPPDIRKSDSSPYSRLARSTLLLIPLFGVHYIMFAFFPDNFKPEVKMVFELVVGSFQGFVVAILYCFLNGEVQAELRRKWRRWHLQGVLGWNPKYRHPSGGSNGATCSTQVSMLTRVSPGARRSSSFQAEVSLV

CC(C)[C@@H]1CC[C@@H](C)C[C@H]1OC(=O)O[C@@H](C)OC(=O)[C@H]1[C@@H]2C[C@H](F)[C@@](N)(C(=O)O)[C@@H]21
Activity [1]: inactive | Activity [2]: inactive | Activity [3]: Not Active | Activity [4]: inactive | Activity (Homo sapiens [5]): inactive | Activity [6]: inactive | Activity [7]: inactive | Activity [8]: inactive | Activity (Homo sapiens [9]): inactive | Activity [10]: inactive | Activity [11]: inactive | Activity [12]: inactive | Activity [13]: inactive | Activity (Homo sapiens [14]): inactive | Activity [15]: inactive | Activity [16]: inactive | Activity [17]: inactive | Activity [18]: inactive | Activity [19]: inactive | Activity [20]: inactive | Activity (Homo sapiens [21]): inactive | Activity [22]: inactive | inhibition [23]: 76% | Activity [24]: inactive | Activity [25]: inactive | Activity (Homo sapiens [26]): inactive | Activity (Homo sapiens [27]): inactive | Activity [28]: inactive | Activity (Homo sapiens [29]): inactive | Activity (Homo sapiens [30]): inactive | Activity [31]: inactive | Activity [32]: inactive | Activity (Homo sapiens [33]): inactive | Activity (Homo sapiens [34]): inactive | Activity [35]: inactive | Activity [36]: inactive | Activity (Homo sapiens [37]): inactive | Activity (Homo sapiens [38]): inactive | Activity [39]: inactive | Activity [40]: inactive | Activity [41]: inactive | Activity [42]: inactive | Activity (Homo sapiens [43]): inactive | Activity (Homo sapiens [44]): inactive

N[C@]1(C(=O)O)[C@H]2[C@@H](C[C@@H]1F)[C@@H]2C(=O)O
Activity [1]: inactive | Activity [2]: inactive | Activity [3]: Not Active | Activity [4]: inactive | Activity (Homo sapiens [5]): inactive | Activity [6]: inactive | Activity [7]: inactive | Activity [8]: inactive | Activity (Homo sapiens [9]): inactive | Activity [10]: inactive | Activity [11]: inactive | Activity [12]: inactive | Activity [13]: inactive | Activity (Homo sapiens [14]): inactive | Activity [15]: inactive | Activity [16]: inactive | Activity [17]: inactive | Activity [18]: inactive | Activity [19]: inactive | Activity [20]: inactive | Activity (Homo sapiens [21]): inactive | Activity [22]: inactive | inhibition [23]: inactive | Activity [24]: inactive | Activity [25]: inactive | Activity (Homo sapiens [26]): inactive | Activity (Homo sapiens [27]): inactive | Activity [28]: inactive | Activity (Homo sapiens [29]): inactive | Activity (Homo sapiens [30]): inactive | Activity [31]: inactive | Activity [32]: inactive | Activity (Homo sapiens [33]): inactive | Activity (Homo sapiens [34]): inactive | Activity [35]: inactive | Activity [36]: inactive | Activity (Homo sapiens [37]): inactive | Activity (Homo sapiens [38]): inactive | Activity [39]: inactive | Activity [40]: inactive | Activity [41]: inactive | Activity [42]: inactive | Activity (Homo sapiens [43]): inactive | Activity (Homo sapiens [44]): inactive
